# Measurements taken from ChEMBL document CHEMBL1151324, “Cytotoxic geranyl stilbenes from Macaranga schweinfurthii” (J Nat Prod, 1998).
# How the values were obtained:
# [1] = tested on: PC-3; experiment: Cytotoxicity against human PC3 cells; type: functional
# [2] = tested on: M14; experiment: Cytotoxicity against human M14 cells; type: functional
# [3] = tested on: NCI-H23; experiment: Cytotoxicity against human NCI-H23 cells; type: functional
# [4] = tested on: HL-60; experiment: Cytotoxicity against human HL60 cells; type: functional
# [5] = tested on: U-251; experiment: Cytotoxicity against human U251 cells; type: functional
# [6] = tested on: SN12C; experiment: Cytotoxicity against human SN12C cells; type: functional
# [7] = tested on: IGROV-1; experiment: Cytotoxicity against human IGROV1 cells; type: functional
# [8] = tested on: SK-MEL-5; experiment: Cytotoxicity against human SK-MEL-5 cells; type: functional
# [9] = tested on: A549; experiment: Cytotoxicity against human A549 cells after 48 hrs; type: functional, cell-based; settings: A549, 48 h
# [10] = tested on: T47D; experiment: Cytotoxicity against human T47D cells; type: functional
# [11] = tested on: OVCAR-4; experiment: Cytotoxicity against human OVCAR4 cells; type: functional
# [12] = tested on: BT-549; experiment: Cytotoxicity against human BT549 cells; type: functional
# [13] = tested on: SF-295; experiment: Cytotoxicity against human SF295 cells after 48 hrs; type: functional, cell-based; settings: SF-295, 48 h
# [14] = tested on: NCI-H226; experiment: Cytotoxicity against human NCI-H226 cells; type: functional
# [15] = tested on: SR; experiment: Cytotoxicity against human SR cells; type: functional
# [16] = tested on: RPMI-8226; experiment: Cytotoxicity against human RPMI8226 cells; type: functional
# [17] = tested on: NCI-H460; experiment: Cytotoxicity against human NCI-H460 cells; type: functional
# [18] = tested on: SNB-75; experiment: Cytotoxicity against human SNB75 cells; type: functional
# [19] = tested on: UACC-257; experiment: Cytotoxicity against human UACC257 cells; type: functional
# [20] = tested on: OVCAR-3; experiment: Cytotoxicity against human OVCAR-3 cells; type: functional
# [21] = tested on: LOX IMVI; experiment: Cytotoxicity against human LOXIMVI cells; type: functional
# [22] = tested on: HOP-62; experiment: Cytotoxicity against human HOP62 cells; type: functional
# [23] = tested on: NCI-H322M; experiment: Cytotoxicity against human NCI-H322M cells; type: functional
# [24] = read-out: pLC50 (the source's name) (converted)
structure (smiles),measurement,setting,value
COc1cc(/C=C/c2cc(O)c(C/C=C(\C)CCC=C(C)C)c(O)c2)cc2c1O[C@]1(C)C[C@@H](O)[C@@H](O)C(C)(C)[C@H]1C2 [SCHWEINFURTHIN B],GI50,[1],251 nM
same,CC50,[1]; [24],42.7 µM
same,TGI,[1]; read-out: pTGI (converted),12.9 µM
same,GI50,[2],141 nM
same,LC50,[2],4.17 µM
same,TGI,[2]; read-out: pTGI (converted),1200 nM
same,GI50,[3],3.24 µM
same,LC50,[3],51.3 µM
same,TGI,[3]; read-out: pTGI (converted),19.1 µM
same,GI50,[4],37.1 nM
same,LC50,[4],> 100 µM
same,TGI,[4]; read-out: pTGI (converted),1290 nM
same,GI50,[5],200 nM
same,LC50,[5],49 µM
same,TGI,[5]; read-out: pTGI (converted),24 µM
same,GI50,[6],12 µM
same,LC50,[6],67.6 µM
same,TGI,[6]; read-out: pTGI (converted),28.8 µM
same,GI50,[7],2400 nM
same,LC50,[7],42.7 µM
same,TGI,[7]; read-out: pTGI (converted),18.2 µM
same,GI50,[8],209 nM
same,LC50,[8],28.8 µM
same,TGI,[8]; read-out: pTGI (converted),8.91 µM
same,IC50,[9],7.1 µg/mL
same,GI50,[10],11 µM
same,CC50,[10]; [24],> 100 µM
same,TGI,[10]; read-out: pTGI (converted),69.2 µM
same,GI50,[11],12 µM
same,LC50,[11],77.6 µM
same,TGI,[11]; read-out: pTGI (converted),50.1 µM
same,GI50,[12],11 µM
same,CC50,[12]; [24],83.2 µM
same,TGI,[12]; read-out: pTGI (converted),39.8 µM
same,IC50,[13],9 ng/mL
same,GI50,[14],2190 nM
same,LC50,[14],77.6 µM
same,TGI,[14]; read-out: pTGI (converted),14.1 µM
same,GI50,[15],257 nM
same,LC50,[15],58.9 µM
same,TGI,[15]; read-out: pTGI (converted),12 µM
same,GI50,[16],15.1 nM
same,LC50,[16],12 µM
same,TGI,[16]; read-out: pTGI (converted),110 nM
same,GI50,[17],269 nM
same,LC50,[17],57.5 µM
same,TGI,[17]; read-out: pTGI (converted),12.9 µM
same,GI50,[18],25.1 nM
same,LC50,[18],60.3 µM
same,TGI,[18]; read-out: pTGI (converted),1820 nM
same,GI50,[19],5.75 µM
same,LC50,[19],46.8 µM
same,TGI,[19]; read-out: pTGI (converted),20.9 µM
same,GI50,[20],3.89 µM
same,LC50,[20],42.7 µM
same,TGI,[20]; read-out: pTGI (converted),12.9 µM
same,GI50,[21],380 nM
same,LC50,[21],30.9 µM
same,TGI,[21]; read-out: pTGI (converted),17 µM
same,GI50,[22],851 nM
same,LC50,[22],40.7 µM
same,TGI,[22]; read-out: pTGI (converted),14.1 µM
same,GI50,[23],3.39 µM
same,LC50,[23],42.7 µM
same,TGI,[23]; read-out: pTGI (converted),17 µM
